Laboratory results reported in PubChem BioAssay AID2060614 (Molecular Pharmacology Branch, DTP, NCI, 2025).
pIC50: −log10 of the molar value. “And” between values parts separate entries of the source, which are not always exact repeats. Equal values may be shown once.

System: 598228-144-R-J1-PDC complex spheroids, viability
Assay: Anticancer human tumor 598228-144-R-J1-PDC patient-derived serous endometrial adenocarcinoma cell line growth inhibition [CLK]
Conditions: for viability, T/C: stronger effect = lower value
Method in brief: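 Patient-derived tumor cells grown as complex spheroids with HUVEC endothelial cells and mesenchymal stem cells, treated with drug combinations. Concentrations descend in half-log steps from near clinical Cmax, or from 10 microM if Cmax unknown.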

[1] = curve of first compound, second compound 0.0316 µM
[2] = curve of first compound, second compound 0.1 µM
[3] = curve of first compound, second compound 0.316 µM
[4] = curve of first compound, second compound 1 µM
[5] = curve of first compound, second compound 3.16 µM
[6] = curve of first compound, second compound 10 µM
[7] = second compound 0.0316 µM, first compound 0.000316 µM
[8] = second compound 0.0316 µM, first compound 0.001 µM
[9] = second compound 0.0316 µM, first compound 0.00316 µM
[10] = second compound 0.0316 µM, first compound 0.01 µM
[11] = second compound 0.0316 µM, first compound 0.0316 µM
[12] = second compound 0.0316 µM, first compound 0.1 µM
[13] = second compound 0.1 µM, first compound 0.000316 µM
[14] = second compound 0.1 µM, first compound 0.001 µM
[15] = second compound 0.1 µM, first compound 0.00316 µM
[16] = second compound 0.1 µM, first compound 0.01 µM
[17] = second compound 0.1 µM, first compound 0.0316 µM
[18] = second compound 0.1 µM, first compound 0.1 µM
[19] = second compound 0.316 µM, first compound 0.000316 µM
[20] = second compound 0.316 µM, first compound 0.001 µM
[21] = second compound 0.316 µM, first compound 0.00316 µM
[22] = second compound 0.316 µM, first compound 0.01 µM
[23] = second compound 0.316 µM, first compound 0.0316 µM
[24] = second compound 0.316 µM, first compound 0.1 µM
[25] = second compound 1 µM, first compound 0.000316 µM
[26] = second compound 1 µM, first compound 0.001 µM
[27] = second compound 1 µM, first compound 0.00316 µM
[28] = second compound 1 µM, first compound 0.01 µM
[29] = second compound 1 µM, first compound 0.0316 µM
[30] = second compound 1 µM, first compound 0.1 µM
[31] = second compound 3.16 µM, first compound 0.000316 µM
[32] = second compound 3.16 µM, first compound 0.001 µM
[33] = second compound 3.16 µM, first compound 0.00316 µM
[34] = second compound 3.16 µM, first compound 0.01 µM
[35] = second compound 3.16 µM, first compound 0.0316 µM
[36] = second compound 3.16 µM, first compound 0.1 µM
[37] = second compound 10 µM, first compound 0.000316 µM
[38] = second compound 10 µM, first compound 0.001 µM
[39] = second compound 10 µM, first compound 0.00316 µM
[40] = second compound 10 µM, first compound 0.01 µM
[41] = second compound 10 µM, first compound 0.0316 µM
[42] = second compound 10 µM, first compound 0.1 µM
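Note: spheroids exposed to compounds for seven days before readout.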
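Throughout, for viability, T/C: 100% = DMSO vehicle control wells.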

Cn1ncnc1[C@H]1c2n[nH]c(=O)c3cc(F)cc(c23)N[C@@H]1c1ccc(F)cc1 + CN1CCN(c2cc(C(=O)Nc3cc4cc(-c5cnn(C)c5)ccc4cn3)ccn2)CC1
pIC50 [1]: < 7.00 | pIC50 [2]: < 7.00 | pIC50 [3]: > 9.50 | pIC50 [4]: > 9.50 | pIC50 [5]: > 9.50 | pIC50 [6]: > 9.50 | viability, T/C [7]: 126% | viability, T/C [8]: 119% | viability, T/C [9]: 107% | viability, T/C [10]: 113% | viability, T/C [11]: 107% | viability, T/C [12]: 122% | viability, T/C [13]: 117% | viability, T/C [14]: 125% | viability, T/C [15]: 114% | viability, T/C [16]: 116% | viability, T/C [17]: 133% | viability, T/C [18]: 129% | viability, T/C [19]: 19.3% | viability, T/C [20]: 19.1% | viability, T/C [21]: 16.3% | viability, T/C [22]: 19% | viability, T/C [23]: 18.8% | viability, T/C [24]: 16.7% | viability, T/C [25]: 1.63% | viability, T/C [26]: 1.39% | viability, T/C [27]: 1.72% | viability, T/C [28]: 1.32% | viability, T/C [29]: 3.04% | viability, T/C [30]: 3.99% | viability, T/C [31]: 1.68% | viability, T/C [32]: 3.14% | viability, T/C [33]: 1.85% | viability, T/C [34]: 2.2% | viability, T/C [35]: 1.94% | viability, T/C [36]: 6.61% | viability, T/C [37]: 1.05% | viability, T/C [38]: 2.11% | viability, T/C [39]: 1.83% | viability, T/C [40]: 0.71% | viability, T/C [41]: 3.42% | viability, T/C [42]: 4.51%

Cn1ncnc1[C@H]1c2n[nH]c(=O)c3cc(F)cc(c23)N[C@@H]1c1ccc(F)cc1 + CNC(=O)c1ccc(Nc2nc(OC3CCCC3)c3c(-c4ccc5nc(C)oc5c4)c[nH]c3n2)c(OC)c1
pIC50 [1]: < 7.00 | pIC50 [2]: < 7.00 | pIC50 [3]: < 7.00 | pIC50 [4]: < 7.00 | pIC50 [5]: < 7.00 | pIC50 [6]: < 7.00 | viability, T/C [7]: 111% | viability, T/C [8]: 118% | viability, T/C [9]: 122% | viability, T/C [10]: 121% | viability, T/C [11]: 114% | viability, T/C [12]: 108% | viability, T/C [13]: 109% | viability, T/C [14]: 122% | viability, T/C [15]: 120% | viability, T/C [16]: 121% | viability, T/C [17]: 112% | viability, T/C [18]: 96.8% | viability, T/C [19]: 114% | viability, T/C [20]: 119% | viability, T/C [21]: 92% | viability, T/C [22]: 115% | viability, T/C [23]: 118% | viability, T/C [24]: 98.1% | viability, T/C [25]: 112% | viability, T/C [26]: 109% | viability, T/C [27]: 107% | viability, T/C [28]: 117% | viability, T/C [29]: 117% | viability, T/C [30]: 99.3% | viability, T/C [31]: 101% | viability, T/C [32]: 99.2% | viability, T/C [33]: 99.7% | viability, T/C [34]: 118% | viability, T/C [35]: 104% | viability, T/C [36]: 105% | viability, T/C [37]: 105% | viability, T/C [38]: 115% | viability, T/C [39]: 99.5% | viability, T/C [40]: 105% | viability, T/C [41]: 82.5% | viability, T/C [42]: 128%

O=C(c1cc(Cc2n[nH]c(=O)c3ccccc23)ccc1F)N1CCN(C(=O)C2CC2)CC1
viability, T/C (compound 0.0316 µM): 93.1% and 97.7% | viability, T/C (compound 0.1 µM): 87.5% and 104% | viability, T/C (compound 0.316 µM): 95.4% and 94.2% | viability, T/C (compound 1 µM): 94.4% and 105% | viability, T/C (compound 3.16 µM): 97.5% and 103% | viability, T/C (compound 10 µM): 88% and 87.2% | pIC50 (curve of compound): < 5.00

C#Cc1c(F)ccc2cc(O)cc(-c3ncc4c(N5CC6CCC(C5)N6)nc(OCC56CCCN5CC(F)C6)nc4c3F)c12 (stereo not given)
viability, T/C (compound 0.0316 µM): 99.8% and 98.6% | viability, T/C (compound 0.1 µM): 101% and 103% | viability, T/C (compound 0.316 µM): 108% and 112% | viability, T/C (compound 1 µM): 103% and 100% | viability, T/C (compound 3.16 µM): 102% and 103% | viability, T/C (compound 10 µM): 97.9% and 102% | pIC50 (curve of compound): < 5.00

CCN1CCN(Cc2ccc(Nc3ncc(F)c(-c4cc(F)c5nc(C)n(C(C)C)c5c4)n3)nc2)CC1 + CN1CCN(c2cc(C(=O)Nc3cc4cc(-c5cnn(C)c5)ccc4cn3)ccn2)CC1
pIC50 [1]: < 6.00 | pIC50 [2]: < 6.00 | pIC50 [3]: > 8.50 | pIC50 [4]: > 8.50 | pIC50 [5]: > 8.50 | pIC50 [6]: > 8.50 | viability, T/C [9]: 126% | viability, T/C [10]: 113% | viability, T/C [11]: 119% | viability, T/C [12]: 112% | viability, T/C (second compound 0.0316 µM, first compound 0.316 µM): 116% | viability, T/C (second compound 0.0316 µM, first compound 1 µM): 103% | viability, T/C [15]: 125% | viability, T/C [16]: 122% | viability, T/C [17]: 115% | viability, T/C [18]: 115% | viability, T/C (second compound 0.1 µM, first compound 0.316 µM): 123% | viability, T/C (second compound 0.1 µM, first compound 1 µM): 107% | viability, T/C [21]: 17.8% | viability, T/C [22]: 17.6% | viability, T/C [23]: 15.1% | viability, T/C [24]: 19.9% | viability, T/C (second compound 0.316 µM, first compound 0.316 µM): 20.7% | viability, T/C (second compound 0.316 µM, first compound 1 µM): 24.4% | viability, T/C [27]: 1.42% | viability, T/C [28]: 5.67% | viability, T/C [29]: 1.8% | viability, T/C [30]: 1.54% | viability, T/C (second compound 1 µM, first compound 0.316 µM): 1.56% | viability, T/C (second compound 1 µM, first compound 1 µM): 6.64% | viability, T/C [33]: 1.54% | viability, T/C [34]: 3.86% | viability, T/C [35]: 2.86% | viability, T/C [36]: 1.78% | viability, T/C (second compound 3.16 µM, first compound 0.316 µM): 2.22% | viability, T/C (second compound 3.16 µM, first compound 1 µM): 5.76% | viability, T/C [39]: 1% | viability, T/C [40]: 3.61% | viability, T/C [41]: 0.93% | viability, T/C [42]: 1.25% | viability, T/C (second compound 10 µM, first compound 0.316 µM): 3.23% | viability, T/C (second compound 10 µM, first compound 1 µM): 3.64%
